# Test results as given in US8952024B2, “Herbicidal pyrimidone derivatives” (E I du Pont de Nemours and Company, priority 2009, dated 2015).
# Key:
# Assay type in all cases: in vivo
# [1] = test system: nightshade (eastern black nightshade, Solanum ptycanthum); assay: Test B pre-/postemergence plant response; conditions: Preemergence; for Nightshade plant response rating: 125 g ai/ha
# Procedure, shortened: (§1)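 Greenhouse herbicide screen. Pre- and postemergence (1- to 4-leaf) spray of compound in solvent/surfactant mixture; loam–sand soil for pre, peat/vermiculite medium for post. Visual control rating 0–100 at 13 to 15 days after treatment.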
# [2] = test system: galium (catchweed bedstraw, Galium aparine); assay: Test B pre-/postemergence plant response; conditions: Preemergence; for Galium plant response rating: 125 g ai/ha
# Procedure, shortened: as §1
# [3] = test system: sunflower (common oilseed sunflower, Helianthus annuus); assay: Test B pre-/postemergence plant response; conditions: Preemergence; for Sunflower plant response rating: 125 g ai/ha
# Procedure, shortened: as §1
# [4] = test system: morningglory (Ipomoea spp.); assay: Test A pre-/postemergence plant response
# Procedure, shortened: (§2)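 Greenhouse trial, ~10 days. Soil (loam/sand) sprayed preemergence after seeding; emerged plants (1–2 leaf, 2–10 cm) sprayed postemergence in parallel. Response = visual injury vs untreated control, 0–100.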
# [5] = test system: wheat (Triticum aestivum); assay: Test A pre-/postemergence plant response
# Procedure, shortened: as §2
# [6] = test system: large crabgrass (Digitaria sanguinalis); assay: Test A pre-/postemergence plant response
# Procedure, shortened: as §2
# [7] = test system: giant foxtail (Setaria faberii); assay: Test A pre-/postemergence plant response
# Procedure, shortened: as §2
# corn (Zea mays) = assay: Test A pre-/postemergence plant response
# Procedure, shortened: as §2
# [8] = test system: velvetleaf (Abutilon theophrasti); assay: Test A pre-/postemergence plant response
# Procedure, shortened: as §2
# [9] = test system: goosegrass (Eleusine indica); assay: Test B pre-/postemergence plant response; conditions: Preemergence, 62 g ai/ha; scale 0 to 100, 0 no effect, 100 complete control
# [10] = test system: canarygrass (Phalaris minor); assay: Test B postemergence plant response; conditions: for Canarygrass plant response rating: 250 g ai/ha, scale 0 to 100
# Procedure, shortened: (§3)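 Plants at the 1- to 4-leaf stage (2 to 18 cm tall), grown in pots of peat moss/vermiculite medium with wetting agent and starter nutrients, received postemergence applications of test chemicals. After 13 to 15 days in a greenhouse, injury was rated visually against untreated controls on a 0 (no effect) to 100 (complete control) scale.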
# [11] = test system: chickweed (Stellaria media); assay: Test B postemergence plant response; conditions: for Chickweed plant response rating: 250 g ai/ha, scale 0 to 100
# Procedure, shortened: as §3
# [12] = test system: winter barley (Hordeum vulgare); assay: Test B postemergence plant response; conditions: for Barley plant response rating: 250 g ai/ha, scale 0 to 100
# Procedure, shortened: as §3
# [13] = test system: windgrass (Apera spica-venti); assay: Test B postemergence plant response
# Procedure, shortened: as §3
# [14] = 31 g ai/ha, scale 0 to 100 (0 no effect, 100 complete control)
# [15] = 62 g ai/ha, scale 0 to 100, 0 no effect, 100 complete control
# [16] = Postemergence, 125 g ai/ha, visual injury, 0 to 100 scale (0 no effect, 100 complete control), approx. ten days
# [17] = Postemergence, 500 g ai/ha, 0 to 100 scale, 0 = no effect, 100 = complete control, approx. ten days
# [18] = Preemergence, 125 g ai/ha, 0 to 100 scale, 0 = no effect, 100 = complete control
# [19] = Preemergence, 500 g ai/ha, visual injury, 0 to 100 scale (0 no effect, 100 complete control), approx. ten days
# [20] = Postemergence, 31 g ai/ha, scale 0 to 100 (0 no effect, 100 complete control)
# [21] = Postemergence, 62 g ai/ha, scale 0 (no effect) to 100 (complete control), 13 to 15 days
# [22] = Postemergence, 125 g ai/ha, visual rating after 13 to 15 days, scale 0 (no effect) to 100 (complete control)
# [23] = 31 g ai/ha, postemergence, scale 0 to 100, 0 is no effect, 100 is complete control
compound,measurement,setting,value
5-[(2-hydroxy-6-oxo-1-cyclohexen-1-yl)carbonyl]-3-phenyl-2-(3-pyridinyl)-4(3H)-pyrimidone [Compound 113],"Plant response rating, Nightshade","[1]; 250 g ai/ha, 0 to 100 scale",100
same,"Plant response rating, Nightshade",[1]; [14],80
same,"Plant response rating, Nightshade",[1]; [15],90
same,Nightshade plant response rating,[1]; 0 to 100 scale,95
same,"Plant response rating, Galium","[2]; 250 g ai/ha, 0 to 100 scale",0
same,"Plant response rating, Galium",[2]; [14],0
same,"Plant response rating, Galium",[2]; [15],0
same,Galium plant response rating,[2]; 0 to 100 scale,0
same,"Plant response rating, Sunflower","[3]; 250 g ai/ha, 0 to 100 scale",25
same,"Plant response rating, Sunflower",[3]; [14],0
same,"Plant response rating, Sunflower",[3]; [15],0
same,Sunflower plant response rating,[3]; 0 to 100 scale,0
same,Morningglory plant response rating,[4]; [16],100
same,"Plant response rating, Morningglory",[4]; [17],100
same,"Plant response rating, Morningglory",[4]; [18],0
same,"Plant response rating, Morningglory",[4]; [19],40
same,Wheat plant response rating,[5]; [16],0
same,"Plant response rating, Wheat",[5]; [17],40
same,"Plant response rating, Wheat",[5]; [18],0
same,"Plant response rating, Wheat",[5]; [19],0
same,"Crabgrass, Large plant response rating",[6]; [16],50
same,"Plant response rating, Crabgrass, Large",[6]; [17],70
same,"Plant response rating, Crabgrass, Large",[6]; [18],0
same,"Plant response rating, Crabgrass, Large",[6]; [19],40
same,"Foxtail, Giant plant response rating",[7]; [16],40
same,"Plant response rating, Foxtail, Giant",[7]; [17],60
same,"Plant response rating, Foxtail, Giant",[7]; [18],0
same,"Plant response rating, Foxtail, Giant",[7]; [19],20
same,Corn plant response rating,corn (Zea mays); [16],0
same,"Plant response rating, Corn",corn (Zea mays); [17],40
same,"Plant response rating, Corn",corn (Zea mays); [18],0
same,"Plant response rating, Corn",corn (Zea mays); [19],0
same,Velvetleaf plant response rating,[8]; [16],100
same,"Plant response rating, Velvetleaf",[8]; [17],100
same,"Plant response rating, Velvetleaf",[8]; [18],60
same,"Plant response rating, Velvetleaf",[8]; [19],100
same,"Plant response rating, Goosegrass",[9],25
same,"Plant response rating, Canarygrass",[10]; [20],0
same,"Plant response rating, Canarygrass",[10]; [21],0
same,"Plant response rating, Canarygrass",[10]; [22],0
same,Canarygrass plant response rating,[10]; Postemergence,0
same,"Plant response rating, Chickweed",[11]; [20],60
same,"Plant response rating, Chickweed",[11]; [21],80
same,"Plant response rating, Chickweed",[11]; [22],90
same,Chickweed plant response rating,[11]; Postemergence,100
same,"Plant response rating, Barley",[12]; [20],0
same,"Plant response rating, Barley",[12]; [21],0
same,"Plant response rating, Barley","[12]; Postemergence, 125 g ai/ha, scale 0 to 100 (0 no effect, 100 complete control), 13 to 15 days",0
same,Barley plant response rating,[12]; Postemergence,0
same,"Plant response rating, Windgrass",[13]; [20],5
same,"Plant response rating, Windgrass",[13]; [21],5
same,"Plant response rating, Windgrass",[13]; [22],5
same,Windgrass plant response rating,"[13]; Postemergence, 250 g ai/ha, scale 0 to 100",5
CCn1c(-c2ccccc2)ncc(C(=O)C2=C(O)CCCC2=O)c1=O [Compound 49],"Plant response rating, Nightshade","[1]; 250 g ai/ha, 0 to 100 scale",98
same,"Plant response rating, Nightshade",[1]; [14],98
same,"Plant response rating, Nightshade",[1]; [15],98
same,Nightshade plant response rating,[1]; 0 to 100 scale,98
same,"Plant response rating, Galium","[2]; 250 g ai/ha, 0 to 100 scale",95
same,"Plant response rating, Galium",[2]; [14],0
same,"Plant response rating, Galium",[2]; [15],80
same,Galium plant response rating,[2]; 0 to 100 scale,90
same,"Plant response rating, Sunflower","[3]; 250 g ai/ha, 0 to 100 scale",75
same,"Plant response rating, Sunflower",[3]; [14],60
same,Sunflower plant response rating,[3]; 0 to 100 scale,75
same,Morningglory plant response rating,[4]; [16],100
same,"Plant response rating, Morningglory",[4]; [17],100
same,"Plant response rating, Morningglory",[4]; [18],30
same,"Plant response rating, Morningglory",[4]; [19],80
same,Wheat plant response rating,[5]; [16],0
same,"Plant response rating, Wheat",[5]; [17],0
same,"Plant response rating, Wheat",[5]; [18],0
same,"Plant response rating, Wheat",[5]; [19],0
same,"Crabgrass, Large plant response rating",[6]; [16],90
same,"Plant response rating, Crabgrass, Large",[6]; [17],90
same,"Plant response rating, Crabgrass, Large",[6]; [18],60
same,"Plant response rating, Crabgrass, Large",[6]; [19],90
same,"Foxtail, Giant plant response rating",[7]; [16],50
same,"Plant response rating, Foxtail, Giant",[7]; [17],80
same,"Plant response rating, Foxtail, Giant",[7]; [18],20
same,"Plant response rating, Foxtail, Giant",[7]; [19],50
same,Corn plant response rating,corn (Zea mays); [16],0
same,"Plant response rating, Corn",corn (Zea mays); [17],20
same,"Plant response rating, Corn",corn (Zea mays); [18],0
same,"Plant response rating, Corn",corn (Zea mays); [19],0
same,Velvetleaf plant response rating,[8]; [16],100
same,"Plant response rating, Velvetleaf",[8]; [17],100
same,"Plant response rating, Velvetleaf",[8]; [18],80
same,"Plant response rating, Velvetleaf",[8]; [19],90
same,"Plant response rating, Goosegrass",[9],95
same,"Plant response rating, Canarygrass",[10]; [23],0
same,"Plant response rating, Canarygrass",[10]; [21],0
same,"Plant response rating, Canarygrass",[10]; [22],0
same,Canarygrass plant response rating,[10]; Postemergence,0
same,"Plant response rating, Chickweed",[11]; [23],75
same,"Plant response rating, Chickweed",[11]; [21],75
same,"Plant response rating, Chickweed",[11]; [22],80
same,Chickweed plant response rating,[11]; Postemergence,90
same,"Plant response rating, Barley",[12]; [23],0
same,"Plant response rating, Barley",[12]; [21],0
same,"Plant response rating, Barley",[12]; [22],0
same,Barley plant response rating,[12]; Postemergence,0
same,"Plant response rating, Windgrass",[13]; [23],0
same,"Plant response rating, Windgrass",[13]; [21],0
same,"Plant response rating, Windgrass",[13]; [22],5
